≈ marks a conversion by molar mass, not a printed value.
Columns and labels:
[1] = tested on: Enterococcus faecium; experiment: Antibacterial activity against […] Enterococcus faecium 1092 after 20 hrs by CLSI-based microdilution method; format: functional; conditions: Enterococcus faecium, 1092, 20 h
[2] = tested on: Escherichia coli; experiment: Antibacterial activity against Escherichia coli 2271 after 20 hrs by CLSI-based microdilution method; format: functional; conditions: Escherichia coli, 2271, 20 h
[3] = tested on: Escherichia coli; experiment: Antibacterial activity against Escherichia coli 121 after 20 hrs by CLSI-based microdilution method; format: functional; conditions: O157:H7 str. 121, 20 h
[4] = tested on: Staphylococcus aureus; experiment: Antibacterial activity against methicillin-resistant Staphylococcus aureus 2011 after 20 hrs by CLSI-based microdilution method; format: functional; conditions: Staphylococcus aureus, 2011, 20 h
[5] = tested on: Haemophilus influenzae; experiment: Antibacterial activity against Haemophilus influenzae 1244 after 20 hrs by CLSI-based microdilution method; format: functional; conditions: Haemophilus influenzae, 1244, 20 h
[6] = tested on: Streptococcus pneumoniae; experiment: Antibacterial activity against Streptococcus pneumoniae 911 after 20 hrs by CLSI-based microdilution method; format: functional; conditions: Streptococcus pneumoniae, 911, 20 h
[7] = tested on: Staphylococcus aureus; experiment: Antibacterial activity against methicillin-resistant Staphylococcus aureus 757 after 20 hrs by CLSI-based microdilution method; format: functional; conditions: Staphylococcus aureus, 757, 20 h
[8] = tested on: Enterococcus faecalis; experiment: Antibacterial activity against Enterococcus faecalis UNT-047 expressing ermB by broth microdilution method; format: functional
[9] = tested on: Pseudomonas aeruginosa; experiment: Antibacterial activity against Pseudomonas aeruginosa ATCC 27853 by broth microdilution method; format: functional
[10] = tested on: Staphylococcus aureus; experiment: Antibacterial activity against methicillin-resistant Staphylococcus aureus NRS384 expressing MsrA by broth microdilution method; format: functional
[11] = tested on: Acinetobacter baumannii; experiment: Antibacterial activity against Acinetobacter baumannii ATCC 19606 by broth microdilution method; format: functional; conditions: ATCC 19606 = CIP 70.34 = JCM 6841
[12] = tested on: Enterococcus faecalis; experiment: Antibacterial activity against Enterococcus faecalis ATCC 29212 by broth microdilution method; format: functional
[13] = tested on: Streptococcus pneumoniae; experiment: Antibacterial activity against Streptococcus pneumoniae ATCC 49619 by broth microdilution method; format: functional
[14] = tested on: Staphylococcus aureus; experiment: Antibacterial activity against Staphylococcus aureus ATCC 29213 by broth microdilution method; format: functional
[15] = tested on: Staphylococcus aureus; experiment: Antibacterial activity against Staphylococcus aureus BAA-977 expressing iermA by broth microdilution method; format: functional
[16] = tested on: Streptococcus pneumoniae; experiment: Antibacterial activity against Streptococcus pneumoniae UNT-042 expressing ermB/mefA by broth microdilution method; format: functional
[17] = tested on: Pseudomonas aeruginosa; experiment: Growth inhibition of Pseudomonas aeruginosa PA14 after 24 hrs; format: functional, organism-based; conditions: PA14, 24 h
[18] = tested on: Klebsiella pneumoniae; experiment: Antibacterial activity against Klebsiella pneumoniae ATCC 27736 by broth microdilution method; format: functional
[19] = Drug accumulation in Escherichia coli MG1655 assessed per 10^12 CFU at 50 uM incubated for 10 mins under shaking condition by LC-MS/MS analysis; format: ADME, K-12 substr. MG1655
[20] = tested on: Escherichia coli; experiment: Antibacterial activity against Escherichia coli ELZ4045 by broth microdilution method; format: functional
[21] = tested on: Acinetobacter baumannii; experiment: Antibacterial activity against Acinetobacter baumannii KB349 by broth microdilution method; format: functional
[22] = tested on: Pseudomonas aeruginosa; experiment: Antibacterial activity against Pseudomonas aeruginosa PAO1 by broth microdilution method; format: functional
[23] = tested on: Acinetobacter baumannii; experiment: Antibacterial activity against Acinetobacter baumannii IF101 by broth microdilution method; format: functional
[24] = tested on: Escherichia coli; experiment: Antibacterial activity against Escherichia coli ELZ4239 by broth microdilution method; format: functional
[25] = tested on: Escherichia coli; experiment: Antibacterial activity against Escherichia coli ELZ4346 by broth microdilution method; format: functional
[26] = tested on: Klebsiella pneumoniae; experiment: Antibacterial activity against Klebsiella pneumoniae 4-38 by broth microdilution method; format: functional
[27] = tested on: Enterobacter cloacae; experiment: Antibacterial activity against Enterobacter cloacae ATCC 29893 by broth microdilution method; format: functional
[28] = tested on: Acinetobacter baumannii; experiment: Antibacterial activity against Acinetobacter baumannii BD335 by broth microdilution method; format: functional
[29] = tested on: Acinetobacter baumannii; experiment: Antibacterial activity against Acinetobacter baumannii WO22 by broth microdilution method; format: functional
[30] = tested on: Escherichia coli; experiment: Antibacterial activity against Escherichia coli ELZ4017 by broth microdilution method; format: functional
[31] = tested on: Escherichia coli; experiment: Antibacterial activity against Escherichia coli ELZ4081 by broth microdilution method; format: functional
[32] = tested on: Escherichia coli; experiment: Antibacterial activity against Escherichia coli BAA-2469 by broth microdilution method; format: functional
[33] = tested on: Klebsiella pneumoniae; experiment: Antibacterial activity against Klebsiella pneumoniae 6-73 by broth microdilution method; format: functional
[34] = tested on: Enterobacter cloacae; experiment: Antibacterial activity against Enterobacter cloacae 3-46 by broth microdilution method; format: functional
[35] = tested on: Enterobacter cloacae; experiment: Antibacterial activity against Enterobacter cloacae 1-60 by broth microdilution method; format: functional
[36] = tested on: Escherichia coli; experiment: Antibacterial activity against Escherichia coli MG1655 by broth microdilution method; format: functional; conditions: K-12 substr. MG1655
[37] = tested on: Escherichia coli; experiment: Antibacterial activity against Escherichia coli ELZ4072 by broth microdilution method; format: functional
[38] = tested on: Acinetobacter baumannii; experiment: Antibacterial activity against Acinetobacter baumannii KB304 by broth microdilution method; format: functional
[39] = tested on: Staphylococcus aureus; experiment: Antibacterial activity against Staphylococcus aureus NRS3 by broth microdilution method; format: functional

CN(C)[C@@H]1C(O)=C(C(N)=O)C(=O)[C@@]2(O)C(O)=C3C(=O)c4c(O)cccc4[C@H](c4ccccc4)[C@H]3C[C@@H]12
MIC [1]: 0.5 µg/mL (≈ 1.02 µM) | MIC [2]: > 16 µg/mL | MIC [3]: 8 µg/mL (≈ 16.3 µM) | MIC [4]: 0.12 µg/mL (≈ 0.245 µM) | MIC [5]: 2 µg/mL (≈ 4.08 µM) | MIC [6]: < 0.06 µg/mL | MIC [7]: 0.5 µg/mL (≈ 1.02 µM)

CN(C)c1c2c(c(O)c3cc(CNC(C)(C)C)ccc13)C(=O)C1=C(O)[C@]3(O)C(=O)C(C(N)=O)=C(O)[C@@H](N(C)C)[C@@H]3C[C@@H]1C2
MIC [1]: 0.5 µg/mL (≈ 0.844 µM) | MIC [2]: 1 µg/mL (≈ 1.69 µM) | MIC [3]: 1 µg/mL (≈ 1.69 µM) | MIC [4]: 0.25 µg/mL (≈ 0.422 µM) | MIC [5]: 0.25 µg/mL (≈ 0.422 µM) | MIC [6]: 0.5 µg/mL (≈ 0.844 µM) | MIC [7]: 1 µg/mL (≈ 1.69 µM)

CC[C@H]1OC(=O)[C@H](C)[C@@H](O[C@H]2C[C@@](C)(OC)[C@@H](O)[C@H](C)O2)[C@H](C)[C@@H](O[C@@H]2O[C@H](C)C[C@H](N(C)C)[C@H]2O)[C@](C)(O)C[C@@H](C)C(=O)[C@H](C)[C@@H](O)[C@]1(C)O [ERYTHROMYCIN]
MIC [8]: > 256 µg/mL | MIC [9]: 64 µg/mL (≈ 87.2 µM) | MIC [10]: 64 µg/mL (≈ 87.2 µM) | MIC [11]: 16 µg/mL (≈ 21.8 µM) | MIC [12]: 1 µg/mL (≈ 1.36 µM) | MIC [13]: 0.03 µg/mL (≈ 0.0409 µM) | MIC [14]: 0.5 µg/mL (≈ 0.681 µM) | MIC [15]: > 256 µg/mL | MIC [16]: > 256 µg/mL

CCCCCC[C@H](CCCCC[C@@H](O)C(N)=O)NC(=O)[C@@H]1CC=CN1C(=O)c1ccccc1O
IC50 [17]: > 250 µM

CC[C@H]1OC(=O)[C@@](C)(F)C(=O)[C@H](C)[C@@H](O[C@@H]2O[C@H](C)C[C@H](N(C)C)[C@H]2O)[C@](C)(OC)C[C@@H](C)C(=O)[C@H](C)[C@@H]2N(CC#CCn3cc(-c4cccc(N)n4)nn3)C(=O)O[C@@]21C
MIC [8]: 1 µg/mL (≈ 1.19 µM) | MIC [9]: 16 µg/mL (≈ 19 µM) | MIC [10]: 0.06 µg/mL (≈ 0.0713 µM) | MIC [11]: 2 µg/mL (≈ 2.38 µM) | MIC [12]: 0.03 µg/mL (≈ 0.0356 µM) | MIC [13]: ≤ 0.03 µg/mL | MIC [14]: 0.06 µg/mL (≈ 0.0713 µM) | MIC [15]: 0.06 µg/mL (≈ 0.0713 µM) | MIC [16]: ≤ 0.03 µg/mL

Cc1cc(=O)n(C)c2c3c4c(cc12)c(C)cc(=O)n4C(CN)CO3 (configuration not stated)
MIC [18]: 1 to 8 µg/mL (≈ 3.07 to 24.6 µM) | Drug uptake [19]: 1114 nmol | MIC [20]: 0.5 to 16 µg/mL (≈ 1.54 to 49.2 µM) | MIC [21]: 2 to 16 µg/mL (≈ 6.15 to 49.2 µM) | MIC [22]: 16 µg/mL (≈ 49.2 µM) | MIC [23]: 2 to 16 µg/mL (≈ 6.15 to 49.2 µM) | MIC [11]: 2 to 16 µg/mL (≈ 6.15 to 49.2 µM) | MIC [24]: 0.5 to 16 µg/mL (≈ 1.54 to 49.2 µM) | MIC [25]: 0.5 to 16 µg/mL (≈ 1.54 to 49.2 µM) | MIC [26]: 1 to 8 µg/mL (≈ 3.07 to 24.6 µM) | MIC [27]: 0.5 to 4 µg/mL (≈ 1.54 to 12.3 µM) | MIC [28]: 2 to 16 µg/mL (≈ 6.15 to 49.2 µM) | MIC [29]: 2 to 16 µg/mL (≈ 6.15 to 49.2 µM) | MIC [30]: 0.5 to 16 µg/mL (≈ 1.54 to 49.2 µM) | MIC [31]: 0.5 to 16 µg/mL (≈ 1.54 to 49.2 µM) | MIC [32]: 0.5 to 16 µg/mL (≈ 1.54 to 49.2 µM) | MIC [14]: 0.03 to 0.5 µg/mL (≈ 0.0922 to 1.54 µM) | MIC [33]: 1 to 8 µg/mL (≈ 3.07 to 24.6 µM) | MIC [34]: 0.5 to 4 µg/mL (≈ 1.54 to 12.3 µM) | MIC [35]: 0.5 to 4 µg/mL (≈ 1.54 to 12.3 µM) | MIC [36]: 0.5 to 16 µg/mL (≈ 1.54 to 49.2 µM) | MIC [37]: 0.5 to 16 µg/mL (≈ 1.54 to 49.2 µM) | MIC [38]: 2 to 16 µg/mL (≈ 6.15 to 49.2 µM) | MIC [39]: 0.03 to 0.5 µg/mL (≈ 0.0922 to 1.54 µM)
